Strand notation (5' to 3'): a small letter for the sugar, then the base; units joined by * are phosphorothioate-linked, units joined directly phosphodiester-linked; [ ] holds rarer units or linkages, { } end groups; capitals alone tell only the bases. {Chol-TEG} = cholesterol-triethylene glycol conjugate; [UNA-N] = unlocked nucleic acid (N: the base); [invdT] = inverted (3'-3') thymidine; d = 2'-deoxy (DNA); m = 2'-O-methyl; r = 2'-OH (RNA); f = 2'-fluoro
Tests used:
Z-AAT = conditions: PiZ mouse model of AATD, cited from earlier work
hAAT mRNA = test: Liver hAAT mRNA levels in PiZ mice (RT-qPCR); format: in vivo, human (expressed in PiZ mice); conditions: PiZ mice liver
Method: Compositions comprising double-stranded AAT expression-inhibiting oligomeric compounds were administered to PiZ mice. PiZ mice harbor the human PiZ AAT mutant allele and model human AATD (Carlson et al. Journal of Clinical Investigation 1989). […] Liver hAAT mRNA production was measured at days 3 and 10. Reduced mRNA levels correlated with decreased serum hAAT protein levels, except that mRNA reduction preceded protein reduction by a few days. The level of liver hAAT mRNA production was measured at day 3 and day 10 following a single dose of AAT RNAi agent with MLP delivery polymer in PiZ mice. A sustained decrease in liver hAAT mRNA levels was observed that correlated with the decrease observed in serum hAAT protein levels.
(§1) Human AAT protein levels in serum were monitored for 29 days. At the indicated times, blood samples were collected and assayed for hAAT by ELISA. Day 1 samples were collected prior to trigger administration. For mRNA analysis, 3-4 mice were euthanized at each of days 3, 8, 15, 22, and 29. For euthanized mice, cardiac stick were performed for serum isolation for AAT ELISA (200 μl serum). Half of the left lateral liver lobe was collected and snap-freeze in liquid nitrogen for RNA isolation. The remainder of the left lobes were embedded into paraffin blocks for PAS-D staining with hematoxylin as counter-stain. Serum hAAT levels in mice given AAT Duplex Pair SEQ ID NO: 5/6 were 95% reduced on day 8 and remained reduced to day 29, at which time they were 79% reduced. Mice given AAT Duplex Pair SEQ ID NO: 5/6 were euthanized at either day 3, 8, 15, 22 or 29. Mice given saline or Luciferase siRNA control (SEQ ID 7/8) were euthanized on day 29. Levels of hAAT mRNA in the livers were measured by RT-qPCR. The hAAT mRNA in mice given AAT Duplex Pair SEQ ID NO: 5/6 was reduced by 97% on day 3 and remained reduced on day 29, at which time levels were 56% reduced. The size of the globules and the area of the liver covered by globules was digitally quantitated from liver specimens stained with PAS-D. Duplex Pair SEQ ID NO: 5/6 treated mice had 70% smaller globules at day 15 and 62% smaller globules at day 29. The area of the liver covered with globules was 83% reduced on day 15 and 72% reduced on day 29 (FIG. 5).

hAAT = test: Serum hAAT protein levels in PiZ mice (ELISA); format: in vivo, human (expressed in PiZ mice); conditions: for Serum hAAT normalized to day 1: PiZ mice, single IV 6 mg/kg with 6 mg/kg MLP delivery polymer; for Serum hAAT normalized to day 1 and controls: female PiZ mice, single IV 8 mg/kg + 8 mg/kg MLP delivery polymer, mice euthanized Day 29
Method: as §1

NC(=O)N1c2ccccc2C=Cc2ccccc21 [carbamazepine]
Z-AAT globules in hepatocytes and hepatic fibrosis (Z-AAT): mediate a reduction in Z-AAT globules in hepatocytes and ameliorated hepatic fibrosis

OCCN1CCN(CCCN2c3ccccc3Sc3ccc(C(F)(F)F)cc32)CC1 [fluphenazine]
Z-AAT globules in hepatocytes and hepatic fibrosis (Z-AAT): mediate a reduction in Z-AAT globules in hepatocytes and ameliorated hepatic fibrosis

C[C@H](CC(=O)O)[C@H]1CC[C@H]2[C@@H]3[C@@H](O)C[C@@H]4C[C@H](O)CC[C@]4(C)[C@H]3CC[C@]12C [nor-UDCA, nor-ursodeoxycholic acid]
apoptotic signaling and accumulation of mutant Z-AAT in hepatocytes (Z-AAT; associated with an increase in hepatic autophagy): reduced apoptotic signaling and reduced accumulation of mutant Z-AAT in hepatocytes

Luciferase siRNA control: Luciferase double-stranded siRNA control, SEQ ID NO: 7 and Chol-TEG SEQ ID NO: 8 (chain 1 dTfCmGfAmAfG[UNA-U]fAmCfUmCfAmGfCmGfUmAfAmGdT*dT; chain 2 {Chol-TEG}-mUrAmUfCmUfUmAfCmGfCmUfGmAfGmUfAmCfUmUfCmGfA[invdT]) [reference compound]
Average relative mRNA level (hAAT) (hAAT mRNA; one injection 8 mg/kg + 8 mg/kg MLP delivery polymer, Day 29): 1.031 | hAAT mRNA level (hAAT mRNA; single IV 6 mg/kg with 6 mg/kg MLP delivery polymer, relative to mouse β-actin mRNA, day 3): 1.06 ± 0.20 | Serum hAAT normalized to day 1 (hAAT; day 1 (reference)): 1.00 | Serum hAAT normalized to day 1 (hAAT; day 3): 1.110 ± 0.147 | Serum hAAT normalized to day 1 (hAAT; day −2 (pre-dose)): 0.766 ± 0.219 | Serum hAAT normalized to day 1 and controls (hAAT; Day 1): 1.000 | Serum hAAT normalized to day 1 and controls (hAAT; Day 3): 0.994 ± 0.153 | Serum hAAT normalized to day 1 and controls (hAAT; Day 8): 1.090 ± 0.092 | Serum hAAT normalized to day 1 and controls (hAAT; Day 15): 0.890 ± 0.080 | Serum hAAT normalized to day 1 and controls (hAAT; Day 22): 1.171 ± 0.095 | Serum hAAT normalized to day 1 and controls (hAAT; Day 29): 0.797 ± 0.074 | Serum hAAT normalized to day 1 and controls (hAAT; Day −2): 1.268 ± 0.143
